Patent US12252492B2, “Substituted fused pyrrolo-diazepinones and uses thereof” (Northwestern University, priority 2018, dated 2025)

Assays:
Format in all cases: cell-based, human
MDA-MB-435 = experiment: NCI60 one-dose screen, MDA-MB-435; conditions: MDA-MB-435 (Melanoma); NCI 60 one-dose, 10^-5 M
Experimental: (§1) Anti-cancer activity screening of all compounds was performed by the NCI Developmental Therapeutics Program (DTP) through their NCI60 screening initiative. Assay details can be found at the website dtp.cancer.gov/discovery_development/nci-60/methodology.htm. Information from this website is reproduced here for convenience.
(§2) As of early 2007 all compounds submitted to the NCI 60 Cell screen are tested initially at a single high dose (10^-5 M) in the full NCI 60 cell panel. Only compounds which satisfy pre-determined threshold inhibition criteria in a minimum number of cell lines will progress to the full 5-dose assay. The threshold inhibition criteria for progression to the 5-dose screen was selected to efficiently capture compounds with anti-proliferative activity based on careful analysis of historical DTP screening data. The threshold criteria may be updated as additional data becomes available.
(§3) The One-dose data will be reported as a mean graph of the percent growth of treated cells and will be similar in appearance to mean graphs from the 5-dose assay. […]
(§4) Following drug addition, the plates are incubated for an additional 48 h at 37° C., 5% CO2, 95% air, and 100% relative humidity. […] Bound stain is subsequently solubilized with 10 mM trizma base, and the absorbance is read on an automated plate reader at a wavelength of 515 nm. […]

HCT-15 = experiment: NCI60 one-dose screen, HCT-15; conditions: HCT-15 (Colon Cancer); NCI 60 one-dose, 10^-5 M
Experimental: as §1, §2, §3, §4

SNB-19 = experiment: NCI60 one-dose screen, SNB-19; conditions: SNB-19 (CNS Cancer); NCI 60 one-dose, 10^-5 M
Experimental: as §1, §2, §3, §4

SK-MEL-28 = experiment: NCI60 one-dose screen, SK-MEL-28; conditions: SK-MEL-28 (Melanoma); NCI 60 one-dose, 10^-5 M
Experimental: as §1, §2, §3, §4

NCI-H522 = experiment: NCI60 one-dose screen, NCI-H522; conditions: NCI-H522 (Non-Small Cell Lung Cancer); NCI 60 one-dose, 10^-5 M
Experimental: as §1, §2, §3, §4

SF-295 = experiment: NCI60 one-dose screen, SF-295; conditions: SF-295 (CNS Cancer); NCI 60 one-dose, 10^-5 M
Experimental: as §1, §2, §3, §4

COLO 205 = experiment: NCI60 one-dose screen, COLO 205; conditions: COLO 205 (Colon Cancer); NCI 60 one-dose, 10^-5 M
Experimental: as §1, §2, §3, §4

TK-10 = experiment: NCI60 one-dose screen, TK-10; conditions: TK-10 (Renal Cancer); NCI 60 one-dose, 10^-5 M
Experimental: as §1, §2, §3, §4

RXF 393 = experiment: NCI60 one-dose screen, RXF 393; conditions: RXF 393 (Renal Cancer); NCI 60 one-dose, 10^-5 M
Experimental: as §1, §2, §3, §4

U251 = experiment: NCI60 one-dose screen, U251; conditions: U251 (CNS Cancer); NCI 60 one-dose, 10^-5 M
Experimental: as §1, §2, §3, §4

ACHN = experiment: NCI60 one-dose screen, ACHN; conditions: ACHN (Renal Cancer); NCI 60 one-dose, 10^-5 M
Experimental: as §1, §2, §3, §4

HCC-2998 = experiment: NCI60 one-dose screen, HCC-2998; conditions: HCC-2998 (Colon Cancer); NCI 60 one-dose, 10^-5 M
Experimental: as §1, §2, §3, §4

SK-MEL-5 = experiment: NCI60 one-dose screen, SK-MEL-5; conditions: SK-MEL-5 (Melanoma); NCI 60 one-dose, 10^-5 M
Experimental: as §1, §2, §3, §4

HT29 = experiment: NCI60 one-dose screen, HT29; conditions: HT29 (Colon Cancer); NCI 60 one-dose, 10^-5 M
Experimental: as §1, §2, §3, §4

NCI-H226 = experiment: NCI60 one-dose screen, NCI-H226; conditions: NCI-H226 (Non-Small Cell Lung Cancer); NCI 60 one-dose, 10^-5 M
Experimental: as §1, §2, §3, §4

SNB-75 = experiment: NCI60 one-dose screen, SNB-75; conditions: SNB-75 (CNS Cancer); NCI 60 one-dose, 10^-5 M
Experimental: as §1, §2, §3, §4

NCI-H322M = experiment: NCI60 one-dose screen, NCI-H322M; conditions: NCI-H322M (Non-Small Cell Lung Cancer); NCI 60 one-dose, 10^-5 M
Experimental: as §1, §2, §3, §4

A549/ATCC = experiment: NCI60 one-dose screen, A549; conditions: A549/ATCC (Non-Small Cell Lung Cancer); NCI 60 one-dose, 10^-5 M
Experimental: as §1, §2
The One-dose data will be reported as a mean graph of the percent growth of treated cells and will be similar in appearance to mean graphs from the 5-dose assay. The number reported for the One-dose assay is growth relative to the no-drug control, and relative to the time zero number of cells. This allows detection of both growth inhibition (values between 0 and 100) and lethality (values less than 0). This is the same as for the 5-dose assay, described below. For example, a value of 100 means no growth inhibition. A value of 40 would mean 60% growth inhibition. A value of 0 means no net growth over the course of the experiment. A value of −40 would mean 40% lethality. A value of −100 means all cells are dead. Information from the One-dose mean graph is available for COMPARE analysis.
The human tumor cell lines of the cancer screening panel are grown in RPMI 1640 medium containing 5% fetal bovine serum and 2 mM L-glutamine. For a typical screening experiment, cells are inoculated into 96 well microtiter plates in 100 μL at plating densities ranging from 5,000 to 40,000 cells/well depending on the doubling time of individual cell lines. After cell inoculation, the microtiter plates are incubated at 37° C., 5% CO2, 95% air and 100% relative humidity for 24 h prior to addition of experimental drugs.
After 24 h, two plates of each cell line are fixed in situ with TCA, to represent a measurement of the cell population for each cell line at the time of drug addition (Tz). Experimental drugs are solubilized in dimethyl sulfoxide at 400-fold the desired final maximum test concentration and stored frozen prior to use. At the time of drug addition, an aliquot of frozen concentrate is thawed and diluted to twice the desired final maximum test concentration with complete medium containing 50 μg/ml gentamicin. Additional four, 10-fold or ½ log serial dilutions are made to provide a total of five drug concentrations plus control. Aliquots of 100 μl of these different drug dilutions are added to the appropriate microtiter wells already containing 100 μl of medium, resulting in the required final drug concentrations.
Following drug addition, the plates are incubated for an additional 48 h at 37° C., 5% CO2, 95% air, and 100% relative humidity. For adherent cells, the assay is terminated by the addition of cold TCA. Cells are fixed in situ by the gentle addition of 50 μl of cold 50% (w/v) TCA (final concentration, 10% TCA) and incubated for 60 minutes at 4° C. The supernatant is discarded, and the plates are washed five times with tap water and air dried. Sulforhodamine B (SRB) solution (100 μl) at 0.4% (w/v) in 1% acetic acid is added to each well, and plates are incubated for 10 minutes at room temperature. After staining, unbound dye is removed by washing five times with 1% acetic acid and the plates are air dried. Bound stain is subsequently solubilized with 10 mM trizma base, and the absorbance is read on an automated plate reader at a wavelength of 515 nm. […]

SMILES | Growth Percent (MDA-MB-435) | Growth Percent (HCT-15) | Growth Percent (SNB-19) | Growth Percent (SK-MEL-28) | Growth Percent (NCI-H522) | Growth Percent (SF-295) | Growth Percent (COLO 205) | Growth Percent (TK-10) | Growth Percent (RXF 393) | Growth Percent (U251) | Growth Percent (ACHN) | Growth Percent (HCC-2998) | Growth Percent (SK-MEL-5) | Growth Percent (HT29) | Growth Percent (NCI-H226) | Growth Percent (SNB-75) | Growth Percent (NCI-H322M) | Growth Percent (A549/ATCC)
CC(=O)N1c2ccccc2NC2=C(C(=O)N(C)C2(C)C)C1c1ccccc1 (stereo not drawn) [NUCC-60872] | −67.83% | 93.83% | 39.87% | 56.02% | 18.58% | 45.97% | 14.23% | 87.08% | 27.79% | 18.07% | 95.96% | 60.81% | 27.50% | 25.22% | 91.06% | −3.29% | 73.36% | 80.32%
CC(=O)N1c2ccccc2NC2=C(C(=O)N(Cc3ccccc3)C2(C)C)C1c1ccco1 (stereo not drawn) [NUCC-608455] | −56.24% | 15.65% | 23.61% | 57.26% | 21.79% | −0.75% | 16.77% | 54.92% | −11.72% | 24.64% | 33.51% | 3.73% | 7.88% | 9.99% | 65.66% | 16.83% | 44.61% | 22.02%
